pIC50: −log10 of the molar value.
What follows are molecules tested on Lox-IMVI melanoma cell line (assay: Lox-IMVI anti-proliferative assay (growth inhibition, Cell Titer-Glo)). Conditions: Homo sapiens; IC50 activity level in the cell-based Lox-IMVI anti-proliferative assay; read-out: Activity.
Type: cell-based, human
How it was run: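 Luminescence from cellular ATP measured viability at compound addition and again after 72 h of exposure (37 °C, 5% CO2, RPMI + 10% FBS). Doses spanned 0.5 nM to 10 μM in ten 3-fold steps with 0.2% DMSO. Values were fitted as % of DMSO-treated cells by sigmoidal dose-response.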

| pIC50 | Compound |
| --- | --- |
| < 6.00 | NC(=O)[C@H]1CC[C@@H](n2c(Nc3c(F)cc(F)cc3F)nc3cnc(NC4CC(F)(F)C4)nc32)CC1 [Example 226, (1s,4s)-4-(2-(3,3-difluorocyclobutylamino)-8-(2,4,6-trifluorophenylamino)-9H-purin-9-yl)cyclohexanecarboxamide] |
| < 6.00 | NC(=O)[C@H]1CC[C@@H](n2c(Nc3c(F)cc(F)cc3Cl)nc3cnc(N[C@@H]4CCCOC4)nc32)CC1 [Example 187, (1S,4s)-4-(8-(2-chloro-4,6-difluorophenylamino)-2-((R)-tetrahydro-2H-pyran-3-ylamino)-9H-purin-9-yl)cyclohexanecarboxamide] |
| < 6.00 | NC(=O)[C@H]1CC[C@@H](n2c(Nc3ccc(Cl)c(F)c3F)nc3cnc(N[C@@H]4CCC[C@H]4O)nc32)CC1 [Example 258, (1S,4s)-4-(8-(4-chloro-2,3-difluorophenylamino)-2-((1R,2R)-2-hydroxycyclopentylamino)-9H-purin-9-yl)cyclohexanecarboxamide] |
| < 6.00 | NC(=O)[C@H]1CC[C@@H](n2c(Nc3c(F)cc(F)cc3Cl)nc3cnc(N[C@H]4CCC[C@@H](O)C4)nc32)CC1 [Example 371, (1R,4s)-4-(8-(2-chloro-4,6-difluorophenylamino)-2-((1S,3R)-3-hydroxycyclohexylamino)-9H-purin-9-yl)cyclohexanecarboxamide] |
| < 6.00 | NC(=O)[C@H]1CC[C@@H](n2c(Nc3c(F)cc(F)cc3F)nc3cnc(N[C@@H]4CCOC[C@@H]4F)nc32)CC1 [Example 307, (1S,4s)-4-(2-((3R,4R)-3-fluorotetrahydro-2H-pyran-4-ylamino)-8-(2,4,6-trifluorophenylamino)-9H-purin-9-yl)cyclohexanecarboxamide] |
| 6.30 to 6.60 | NC(=O)[C@H]1CC[C@@H](n2c(Nc3c(F)cc(Cl)cc3F)nc3cnc(NC4CCCC4)nc32)CC1 [Example 120, (1s,4s)-4-(8-(4-chloro-2,6-difluorophenylamino)-2-(cyclopentylamino)-9H-purin-9-yl)cyclohexanecarboxamide] |
| < 6.00 | NC(=O)[C@H]1CC[C@@H](n2c(Nc3c(F)cc(Cl)cc3F)nc3cnc(N[C@H]4C[C@H](O)C4)nc32)CC1 [Example 283, (1s,4s)-4-(8-(4-chloro-2,6-difluorophenylamino)-2-((1r,3r)-3-hydroxycyclobutylamino)-9H-purin-9-yl)cyclohexanecarboxamide] |
| < 6.00 | NC(=O)[C@H]1CC[C@@H](n2c(Nc3c(F)cc(Cl)cc3Cl)nc3cnc(N[C@H]4CCC[C@@H](O)C4)nc32)CC1 [Example 376, (1R,4s)-4-(8-(2,4-dichloro-6-fluorophenylamino)-2-((1S,3R)-3-hydroxycyclohexylamino)-9H-purin-9-yl)cyclohexanecarboxamide] |

Same assay, conditions: Homo sapiens; Lox-IMVI anti-proliferative assay, IC50 activity level; read-out: Activity

| Compound | pIC50 |
| --- | --- |
| C[C@]1(C(N)=O)CC[C@@H](n2c(Nc3c(Cl)cc(F)cc3Cl)nc3cnc(N[C@@H]4CCC[C@H](O)C4)nc32)CC1 [Example 567, (1S,4s)-4-(8-(2,6-dichloro-4-fluorophenylamino)-2-((1R,3S)-3-hydroxycyclohexylamino)-9H-purin-9-yl)-1-methylcyclohexanecarboxamide] | 6.00 to 6.30 |
| C[C@]1(C(N)=O)CC[C@@H](n2c(Nc3c(Cl)cc(F)cc3Cl)nc3cnc(NC4CC(F)(F)C4)nc32)CC1 [Example 582, (1s,4s)-4-(8-(2,6-dichloro-4-fluorophenylamino)-2-(3,3-difluorocyclobutylamino)-9H-purin-9-yl)-1-methylcyclohexanecarboxamide] | > 6.60 |
| C[C@H]1COCC[C@H]1Nc1ncc2nc(Nc3c(F)cc(Cl)cc3F)n([C@H]3CC[C@@H](C(N)=O)CC3)c2n1 [Example 508, (1S,4s)-4-(8-(4-chloro-2,6-difluorophenylamino)-2-((3R,4R)-3-methyltetrahydro-2H-pyran-4-ylamino)-9H-purin-9-yl)cyclohexanecarboxamide] | 6.00 to 6.30 |

Now from value to molecule:

| pIC50 | Compound |
| --- | --- |
| > 6.60 | N#Cc1cc(Cl)c(Nc2nc3cnc(NC4CCCOCC4)nc3n2[C@H]2CC[C@@H](C(N)=O)CC2)c(Cl)c1 (stereo partly drawn) [Example 555, (1s,4s)-4-(8-(2,6-dichloro-4-cyanophenylamino)-2-(oxepan-4-ylamino)-9H-purin-9-yl)cyclohexanecarboxamide] |
| < 6.00 | C[C@]1(C(N)=O)CC[C@H](n2c(Nc3c(Cl)cc(C#N)cc3Cl)nc3cnc(NC4CCC(F)(F)CC4)nc32)CC1 [Example 479, (1r,4r)-4-(8-(2,6-dichloro-4-cyanophenylamino)-2-(4,4-difluorocyclohexylamino)-9H-purin-9-yl)-1-methylcyclohexanecarboxamide] |
| 6.00 to 6.30 | CC(C)Nc1ncc2nc(Nc3c(Cl)cc(C#N)cc3Cl)n([C@H]3CC[C@@H](C(N)=O)CC3)c2n1 [Example 431, (1s,4s)-4-(8-(2,6-dichloro-4-cyanophenylamino)-2-(isopropylamino)-9H-purin-9-yl)cyclohexanecarboxamide] |
| < 6.00 | N#Cc1cc(Cl)c(Nc2nc3cnc(N[C@H]4CCCC[C@H]4O)nc3n2[C@H]2CC[C@@H](C(N)=O)CC2)c(Cl)c1 [Example 519, (1R,4s)-4-(8-(2,6-dichloro-4-cyanophenylamino)-2-((1S,2R)-2-hydroxycyclohexylamino)-9H-purin-9-yl)cyclohexanecarboxamide] |
| > 6.60 | C[C@@H](CO)Nc1ncc2nc(Nc3c(Cl)cc(C#N)cc3Cl)n([C@H]3CC[C@@](C)(C(N)=O)CC3)c2n1 [Example 553, (1R,4s)-4-(8-(2,6-dichloro-4-cyanophenylamino)-2-((S)-1-hydroxypropan-2-ylamino)-9H-purin-9-yl)-1-methylcyclohexanecarboxamide] |

Same assay, conditions: Homo sapiens; Lox-IMVI melanoma cell line, anti-proliferative assay; read-out: Activity (IC50 activity level)

| Compound | pIC50 |
| --- | --- |
| C[C@]1(C(N)=O)CC[C@@H](n2c(Nc3c(Cl)cc(Cl)cc3Cl)nc3cnc(N[C@@H]4CC[C@@H](O)C4)nc32)CC1 [Example 636, (1S,4s)-4-(2-((1R,3R)-3-hydroxycyclopentylamino)-8-(2,4,6-trichlorophenylamino)-9H-purin-9-yl)-1-methylcyclohexanecarboxamide] | > 6.60 |
| CS(=O)(=O)N1CCC[C@@H](Nc2ncc3nc(Nc4c(F)cc(Cl)cc4Cl)n([C@H]4CC[C@@H](C(N)=O)CC4)c3n2)C1 [Example 701, (1S,4s)-4-(8-(2,4-dichloro-6-fluorophenylamino)-2-((R)-1-(methylsulfonyl)piperidin-3-ylamino)-9H-purin-9-yl)cyclohexanecarboxamide] | 6.00 to 6.30 |
| C[C@]1(C(N)=O)CC[C@@H](n2c(Nc3c(F)cc(Cl)cc3Cl)nc3cnc(N[C@H]4CCC[C@@H](O)C4)nc32)CC1 [Example 628, (1R,4s)-4-(8-(2,4-dichloro-6-fluorophenylamino)-2-((1S,3R)-3-hydroxycyclohexylamino)-9H-purin-9-yl)-1-methylcyclohexanecarboxamide] | > 6.60 |
| NC(=O)[C@H]1CC[C@@H](n2c(Nc3c(F)cc(F)cc3Cl)nc3cnc(N[C@@H]4CCCN(c5ccccc5)C4)nc32)CC1 [Example 742, (1S,4s)-4-(8-(2-chloro-4,6-difluorophenylamino)-2-((R)-1-phenylpiperidin-3-ylamino)-9H-purin-9-yl)cyclohexanecarboxamide] | < 6.00 |
| C[C@]1(C(N)=O)CC[C@@H](n2c(Nc3c(F)cc(Cl)cc3F)nc3cnc(N[C@@H]4CCOC[C@H]4F)nc32)CC1 [Example 720, (1S,4s)-4-(8-(4-chloro-2,6-difluorophenylamino)-2-((3S,4R)-3-fluorotetrahydro-2H-pyran-4-ylamino)-9H-purin-9-yl)-1-methylcyclohexanecarboxamide] | > 6.60 |
| C[C@]1(C(N)=O)CC[C@@H](n2c(Nc3c(F)cc(Cl)cc3F)nc3cnc(N[C@@H]4CCC[C@@H](O)C4)nc32)CC1 [Example 622, (1S,4s)-4-(8-(4-chloro-2,6-difluorophenylamino)-2-((1R,3R)-3-hydroxycyclohexylamino)-9H-purin-9-yl)-1-methylcyclohexanecarboxamide] | 6.00 to 6.30 |

The remaining lines, values ahead:

| pIC50 | Compound |
| --- | --- |
| > 6.60 | N#Cc1cc(Cl)c(Nc2nc3cnc(N[C@@H]4CCC(O)C4)nc3n2[C@H]2CC[C@@H](C(N)=O)CC2)c(Cl)c1 (stereo partly drawn) [Example 683, (1S,4s)-4-(8-(2,6-dichloro-4-cyanophenylamino)-2-((1R,3R)-3-hydroxycyclopentylamino)-9H-purin-9-yl)cyclohexanecarboxamide] |
| > 6.60 | C[C@]1(C(N)=O)CC[C@@H](n2c(Nc3c(Cl)cc(C#N)cc3Cl)nc3cnc(N[C@@H]4CC[C@@H](O)C4)nc32)CC1 [Example 641, (1S,4s)-4-(8-(2,6-dichloro-4-cyanophenylamino)-2-((1R,3R)-3-hydroxycyclopentylamino)-9H-purin-9-yl)-1-methylcyclohexanecarboxamide] |
| < 6.00 | CS(=O)(=O)C1CC(Nc2ncc3nc(Nc4c(Cl)cc(Cl)cc4Cl)n([C@H]4CC[C@@H](C(N)=O)CC4)c3n2)C1 (stereo partly drawn) [Example 729, (1s,4s)-4-(2-(3-(methylsulfonyl)cyclobutylamino)-8-(2,4,6-trichlorophenylamino)-9H-purin-9-yl)cyclohexanecarboxamide] |
| < 6.00 | NC(=O)[C@H]1CC[C@@H](n2c(Nc3c(Cl)cc(Cl)cc3Cl)nc3cnc(NC[C@@H]4CCCC[C@@H]4O)nc32)CC1 [Example 654, (1R,4s)-4-(2-(((1S,2S)-2-hydroxycyclohexyl)methylamino)-8-(2,4,6-trichlorophenylamino)-9H-purin-9-yl)cyclohexanecarboxamide] |

Same assay, conditions: Lox-IMVI melanoma cell line, anti-proliferative assay; read-out: Activity (IC50 activity level)

| pIC50 | Compound |
| --- | --- |
| < 6.00 | C[C@]1(C(N)=O)CC[C@@H](n2c(Nc3c(F)cc(C#N)cc3F)nc3cnc(N[C@@H]4CCC[C@@H](O)C4)nc32)CC1 [Example 642, (1S,4s)-4-(8-(4-cyano-2,6-difluorophenylamino)-2-((1R,3R)-3-hydroxycyclohexylamino)-9H-purin-9-yl)-1-methylcyclohexanecarboxamide] |

Reference: patent US11590139B2, “Substituted aminopurine compounds, compositions thereof, and methods of treatment therewith” (Signal Pharmaceuticals, LLC, priority 2014, dated 2023)
